Values quoted from earlier work as cited in patent US20080045604A1, “COMPOSITION AND METHOD FOR FACILITATING THE HEALING OF NON-HEALING AND SLOW-HEALING WOUNDS AND ULCERATIONS” (priority 2004, published 2008).

Columns and labels:
[1] = test system: pathogenic molds and dermatophytes; conditions: reported medicinal properties
Lemma minor = conditions: Fitoterapia 2005
Neisseria gonorrhoeae = conditions: Biological Chemistry 2005

COc1cc(/C=C/C(=O)CC(=O)/C=C/c2ccc(O)c(OC)c2)ccc1O [Curcumin, (1E,6E)-1,7-bis(4-hydroxy-3-methoxyphenyl)-1,6-heptadiene-3,5-dione]
antifungal activity / inhibition of pathogenic molds and dermatophytes [1]: no antifungal activity
phytotoxic against Lemma minor (Lemma minor): 100%
adherence of bacteria to cells in infection (Neisseria gonorrhoeae): abolished the adherence of bacteria to cells
